The text below walks through data of patent US20230002372A1, “AZAINDOLE CARBOXAMIDE COMPOUNDS FOR THE TREATMENT OF MYCOBACTERIAL INFECTIONS” (THE GLOBAL ALLIANCE FOR TB DRUG DEVELOPMENT, INC., priority 2019, published 2023).

≈ marks a conversion by molar mass, not a printed value. Bounds are passed on as bounds.

This assay has as its system M tb H37Rv. Briefly: MIC determination against M tb H37Rv (green fluorescent protein reporter assay; MIC-MABA). The class given is cell-based, Mycobacterium tuberculosis. The note with it: Mycobacterium tuberculosis, H37RV, 240 h, read-out: M. TB H37Rv: MIC-MABA: MIC, M. tb H37Rv; 7H9 broth; 10 days exposure; MIC = lowest concentration inhibiting fluorescence by 90%.
Usually MIC stands for the lowest concentration found to suppress growth. In the case of `C[C@@H]1[C@@H](NC(=O)c2cc3cc(Cl)c(F)nc3[nH]2)C[C@H]2C[C@@H]1C2(C)C` [MPL-064, 5-chloro-6-fluoro-N-[(1S,2S,3S,5R)-2,6,6-trimethylnorpinan-3-yl]-1H-pyrrolo[2,3-b]pyridine-2-carboxamide], the MIC came out at 0.16 mg/L (≈ 0.457 µM). With `C[Si]1(C)CCC(NC(=O)c2cc3c(F)c(Cl)ncc3[nH]2)CC1` [MPL-345, 5-chloro-N-(1,1-dimethylsilinan-4-yl)-4-fluoro-1H-pyrrolo[2,3-c]pyridine-2-carboxamide] the figure was 0.498 mg/L (≈ 1.47 µM). With `COc1ccc2cc(C(=O)NC3CCC[Si](C)(C)CC3)[nH]c2n1` (centres unmarked) [MPL-466, N-(1,1-dimethylsilepan-4-yl)-6-methoxy-1H-pyrrolo[2,3-b]pyridine-2-carboxamide] the figure was 0.119 mg/L (≈ 0.359 µM). With `CC(C)Oc1cncc2[nH]c(C(=O)NC3CC[Si](C)(C)CC3)cc12` [MPL-382, N-(1,1-dimethylsilinan-4-yl)-4-isopropoxy-1H-pyrrolo[2,3-c]pyridine-2-carboxamide] the figure was 0.368 mg/L (≈ 1.07 µM); with `C[C@@H]1[C@@H](NC(=O)c2cc3c(C#N)cncc3[nH]2)C[C@H]2C[C@@H]1C2(C)C` [MPL-095, 4-cyano-N-[(1S,2S,3S,5R)-2,6,6-trimethylnorpinan-3-yl]-1H-pyrrolo[2,3-c]pyridine-2-carboxamide], 1.5 mg/L (≈ 4.65 µM); with `CC1(C)[C@H]2C[C@H](NC(=O)c3cc4c(F)ccnc4[nH]3)[C@](C)(O)[C@@H]1C2` [MPL-213, 4-fluoro-N-[(1R,2R,3S,5R)-2-hydroxy-2,6,6-trimethyl-norpinan-3-yl]-1H-pyrrolo[2,3-b]pyridine-2-carboxamide], 0.046 mg/L (≈ 0.139 µM). As to `COc1c(C(F)(F)F)ncc2[nH]c(C(=O)NC3CC[Si](C)(C)CC3)cc12` [MPL-379, N-(1,1-dimethylsilinan-4-yl)-4-methoxy-5-(trifluoromethyl)-1H-pyrrolo[2,3-c]pyridine-2-carboxamide], the MIC is 0.332 mg/L (≈ 0.861 µM). As to `Cc1cc2cc(C(=O)NC3CCC(C)(C)CC3)[nH]c2cn1` [MPL-125, N-(4,4-dimethylcyclohexyl)-5-methyl-1H-pyrrolo[2,3-c]pyridine-2-carboxamide], the MIC turned out to be 3.1 mg/L (≈ 10.9 µM). With `CC1(C)C2CCC1(C)C(NC(=O)c1cc3c(F)ccnc3[nH]1)C2` (centres unmarked) [MPL-106, 4-fluoro-N-(1,7,7-trimethylnorbornan-2-yl)-1H-pyrrolo[2,3-b]pyridine-2-carboxamide] the figure was 0.16 mg/L (≈ 0.507 µM); with `O=C(NC1CCC2(CCC2)CC1)c1cc2c(Cl)ccnc2[nH]1` [MPL-001, 4-chloro-N-spiro[3.5]nonan-7-yl-1H-pyrrolo[2,3-b]pyridine-2-carboxamide], 0.03 mg/L (≈ 0.0944 µM). Turning to `O=C(NC1CC[Si]2(CCCCC2)CC1)c1cc2c(F)c(C(F)(F)F)ncc2[nH]1` [MPL-368, 4-fluoro-N-(6-silaspiro[5.5]undecan-3-yl)-5-(trifluoromethyl)-1H-pyrrolo[2,3-c]pyridine-2-carboxamide], the MIC came out at 0.49 mg/L (≈ 1.19 µM).

As for `Cc1cc(F)c2cc(C(=O)NC3CC[Si]4(CCCC4)CC3)[nH]c2n1` [MPL-253, 4-fluoro-6-methyl-N-(5-silaspiro[4.5]decan-8-yl)-1H-pyrrolo[2,3-b]pyridine-2-carboxamide], the MIC is 0.056 mg/L (≈ 0.162 µM). On to `C[Si]1(C)CCCC(NC(=O)c2cc3c(F)c(C(F)(F)F)ncc3[nH]2)CC1` (centres unmarked) [MPL-366, N-(1,1-dimethylsilepan-4-yl)-4-fluoro-5-(trifluoromethyl)-1H-pyrrolo[2,3-c]pyridine-2-carboxamide], for which the MIC is 0.492 mg/L (≈ 1.27 µM). The same measure for `Cc1ncc2[nH]c(C(=O)NC3CCC[Si](C)(C)CC3)c(C)c2c1F` (centres unmarked) [MPL-353, N-(1,1-dimethylsilepan-4-yl)-4-fluoro-3,5-dimethyl-1H-pyrrolo[2,3-c]pyridine-2-carboxamide]: 0.124 mg/L (≈ 0.357 µM); for `C[Si]1(C)CCC(NC(=O)c2cc3c(C(F)(F)F)ccnc3[nH]2)CC1` [MPL-111, N-(1,1-dimethylsilinan-4-yl)-4-(trifluoromethyl)-1H-pyrrolo[2,3-b]pyridine-2-carboxamide]: 0.0095 mg/L (≈ 0.0267 µM); for `Cc1ncc2[nH]c(C(=O)N[C@H]3C[C@H]4C[C@@H]([C@@H]3C)C4(C)C)cc2c1F` [MPL-140, 4-fluoro-5-methyl-N-[(1S,2S,3S,5R)-2,6,6-trimethylnorpinan-3-yl]-1H-pyrrolo[2,3-c]pyridine-2-carboxamide]: 1.3 mg/L (≈ 3.95 µM). With `Cc1ncc2[nH]c(C(=O)NC3CC[Si]4(CCCC4)CC3)cc2c1F` [MPL-319, 4-fluoro-5-methyl-N-(5-silaspiro[4.5]decan-8-yl)-1H-pyrrolo[2,3-c]pyridine-2-carboxamide] the figure was 0.499 mg/L (≈ 1.44 µM); with `Cc1c(C(F)(F)F)ncc2[nH]c(C(=O)NC3CCC[Si](C)(C)CC3)cc12` (centres unmarked) [MPL-451, N-(1,1-dimethylsilepan-4-yl)-4-methyl-5-(trifluoromethyl)-1H-pyrrolo[2,3-c]pyridine-2-carboxamide], 0.99 mg/L (≈ 2.58 µM); with `CC1(C)CCC(NC(=O)c2cc3c(F)c(F)cnc3[nH]2)CC1` [MPL-063, N-(4,4-dimethylcyclohexyl)-4,5-difluoro-1H-pyrrolo[2,3-b]pyridine-2-carboxamide], 0.14 mg/L (≈ 0.456 µM). The same measure for `Cc1nc2[nH]c(C(=O)NC3CCC[Si](C)(C)CC3)cc2c(F)c1F` (centres unmarked) [MPL-282, N-(1,1-dimethylsilepan-4-yl)-4,5-difluoro-6-methyl-1H-pyrrolo[2,3-b]pyridine-2-carboxamide]: below 0.004 mg/L.

For `Cc1nc2[nH]c(C(=O)N[C@H]3CCC[Si](C)(C)CC3)cc2c(F)c1F` (single isomer, unassigned) [MPL-282B], the minimum inhibitory concentration (MIC) came to 0.197 mg/L (≈ 0.56 µM). With `O=C(NC1CC[Si]2(CCCCC2)CC1)c1cc2cc(-c3cccnc3)cnc2[nH]1` [MPL-435, 5-(3-pyridyl)-N-(6-silaspiro[5.5]undecan-3-yl)-1H-pyrrolo[2,3-b]pyridine-2-carboxamide] the figure was 1 mg/L (≈ 2.47 µM). The same measure for `CC1(C)[C@H]2C[C@H](NC(=O)c3cc4c(Cl)cncc4[nH]3)[C@](C)(O)[C@@H]1C2` [MPL-222, 4-chloro-N-[(1R,2R, 3S, 5R)-2-hydroxy-2,6,6-trimethyl-norpinan-3-yl]-1H-Pyrrolo[2,3-c]pyridine-2-carboxamide]: 0.19 mg/L (≈ 0.546 µM); for `CC1(C)[C@H]2C[C@H](NC(=O)c3cc4c(F)cncc4[nH]3)[C@](C)(O)[C@@H]1C2` [MPL-221, 4-fluoro-N-[(1R,2R,3S,5R)-2-hydroxy-2,6,6-trimethyl-norpinan-3-yl]-1H-pyrrolo[2,3-c]pyridine-2-carboxamide]: 0.2 mg/L (≈ 0.604 µM); for `Cc1nc2[nH]c(C(=O)NC3CC[Si]4(CCCC4)CC3)cc2c(F)c1F` [MPL-284, 4,5-difluoro-6-methyl-N-(5-silaspiro[4.5]decan-8-yl)-1H-pyrrolo[2,3-b]pyridine-2-carboxamide]: 0.026 mg/L (≈ 0.0715 µM). With `Cc1ncc2[nH]c(C(=O)NC3CC[Si](C)(C)CC3)cc2c1Cl` [MPL-328, 4-chloro-N-(1,1-dimethylsilinan-4-yl)-5-methyl-1H-pyrrolo[2,3-c]pyridine-2-carboxamide] the figure was 0.061 mg/L (≈ 0.182 µM). Consider `C[Si]1(C)CCC(NC(=O)c2cc3c(F)c(C(F)(F)F)ncc3[nH]2)CC1` [MPL-322, N-(1,1-dimethylsilinan-4-yl)-4-fluoro-5-(trifluoromethyl)-1H-pyrrolo[2,3-c]pyridine-2-carboxamide], for which the MIC turned out to be 0.484 mg/L (≈ 1.3 µM). With `Cc1nc2[nH]c(C(=O)N[C@@H]3CC[Si](C)(C)C3)cc2c(F)c1F` (single isomer, unassigned) [MPL-295A], the MIC amounted to 0.22 mg/L (≈ 0.68 µM).

With `C[Si]1(C)CCC(NC(=O)c2cc3c(Cl)cncc3[nH]2)CC1` [MPL-192, 4-chloro-N-(1,1-dimethylsilinan-4-yl)-1H-pyrrolo[2,3-c]pyridine-2-carboxamide], the MIC amounted to 0.0093 mg/L (≈ 0.0289 µM).

For `Cc1nc(F)cc2cc(C(=O)N[C@H]3C[C@H]4C[C@@H]([C@@H]3C)C4(C)C)[nH]c12` [MPL-134, 5-fluoro-7-methyl-N-[(1S,2S,3S,5R)-2,6,6-trimethylnorpinan-3-yl]-1H-pyrrolo[2,3-c]pyridine-2-carboxamide], the MIC was 3.1 mg/L (≈ 9.41 µM).

As for `O=C(NC1CC[Si]2(CCCCC2)CC1)c1cc2c(F)cncc2[nH]1` [MPL-259, 4-fluoro-N-(6-silaspiro[5.5]undecan-3-yl)-1H-pyrrolo[2,3-c]pyridine-2-carboxamide], the MIC was 0.054 mg/L (≈ 0.156 µM).

`CC1(C)C2CCC1(C)C(NC(=O)c1cc3c(C(F)(F)F)ccnc3[nH]1)C2` (centres unmarked) [MPL-108, 4-(trifluoromethyl)-N-(1,7,7-trimethylnorbornan-2-yl)-1H-pyrrolo[2,3-b]pyridine-2-carboxamide]: the MIC was 0.02 mg/L (≈ 0.0547 µM). In the case of `C[Si]1(C)CCC(NC(=O)c2cc3cc(-c4cccnc4)cnc3[nH]2)CC1` [MPL-392, N-(1,1-dimethylsilinan-4-yl)-5-(3-pyridyl)-1H-pyrrolo[2,3-b]pyridine-2-carboxamide], the MIC stood at 0.464 mg/L (≈ 1.27 µM).

Turning to `COc1ccc2cc(C(=O)NC3CC[Si]4(CCCCC4)CC3)[nH]c2n1` [MPL-455, 6-methoxy-N-(6-silaspiro[5.5]undecan-3-yl)-1H-pyrrolo[2,3-b]pyridine-2-carboxamide], the minimum inhibitory concentration (MIC) amounted to 0.121 mg/L (≈ 0.338 µM). As to `C[Si]1(C)CCCC(NC(=O)c2cc3c(F)c(Cl)ncc3[nH]2)CC1` (centres unmarked) [MPL-346, 5-chloro-N-(1,1-dimethylsilepan-4-yl)-4-fluoro-1H-pyrrolo[2,3-c]pyridine-2-carboxamide], the MIC came to 0.464 mg/L (≈ 1.31 µM).

For `COc1ccc2cc(C(=O)NC3CC[Si]4(CCCC4)CC3)[nH]c2n1` [MPL-454, 6-methoxy-N-(5-silaspiro[4.5]decan-8-yl)-1H-pyrrolo[2,3-b]pyridine-2-carboxamide], the MIC was 0.458 mg/L (≈ 1.33 µM). With `C[C@@H]1[C@@H](NC(=O)c2cc3c(F)c(Cl)ncc3[nH]2)C[C@H]2C[C@@H]1C2(C)C` [MPL-138, 5-chloro-4-fluoro-N-[(1S,2S,3S,5R)-2,6,6-trimethylnorpinan-3-yl]-1H-pyrrolo[2,3-c]pyridine-2-carboxamide] the figure was 2.9 mg/L (≈ 8.29 µM); with `Cc1ccnc2[nH]c(C(=O)N[C@H]3C[C@H]4C[C@@H]([C@@H]3C)C4(C)C)cc12` [MPL-016, 4-methyl-N-[(1S,2S,3S,5R)-2,6,6-trimethylnorpinan-3-yl]-1H-pyrrolo[2,3-b]pyridine-2-carboxamide], 0.38 mg/L (≈ 1.22 µM).
